System: 958667-338-R-J2-PDC tumor spheroids viability
Assay: Anticancer human tumor 958667-338-R-J2-PDC patient-derived colon adenocarcinoma cell line growth inhibition [PI3K]
Settings: spheroids with HUVEC and MSC; for viability, T/C: stronger effect = lower value
Excerpt: Combinatorial screen of targeted agents with the PI3K inhibitors inavolisib, alpelisib, duvelisib, and copanlisib in multi-cell type tumor spheroids
A high-throughput screen of multi-cell type tumor spheroids was designed to identify active combinations of targeted small molecules and PI3K pathway inhibitors. Complex spheroids include a stromal component modeled by human endothelial cells (HUVEC) and fibroblasts modeled by human mesenchymal stem cells (MSCs). The concentration ranges selected for each drug and investigational agent were based upon clinically achievable concentrations if the clinical Cmax of the agent was known.
Compounds. The drugs and investigational agents: inavolisib (NSC800729), alpelisib (NSC765974), duvelisib (NSC772469), copanlisib (NSC816437), ipatasertib (NSC767898), afuresertib (NSC778305), talazoparib (NSC767125), sapanisertib (NSC764658), selumetinib (NSC741078), tovorafenib (DAY101, NSC766906), vemurafenib (NSC761431), ravoxertinib (NSC781343), sotorasib (NSC818433), MRTX1133 (NSC 836407), abemaciclib (NSC 768073), palbociclib (NSC758247), venetoclax (NSC 766270), SY5609 (NSC837396), enzalutamide (NSC755605), and darolutamide (NSC825331), were obtained from the National Cancer Institute (NCI) Developmental Therapeutics Program Chemical Repository. The FDA-approved anticancer drug set is available from the NCI Developmental Therapeutics Program. […] The stock solutions were prepared in dimethyl sulfoxide (DMSO, Sigma-Aldrich, St. Louis, MO, cat. D2650) at 800-fold the tested concentration and stored at -70 degrees C prior to their use. All drugs and investigational agents were tested over a range starting from a high concentration at or near the clinical Cmax and decreasing in half-log increments. If the clinical Cmax for an agent had not been determined, the highest concentration tested was 10 microM.
Cell Culture. All cells were maintained in an incubator at 37 degrees C and 5% CO2 with 95% humidity. The PDC lines were cultured according to standard operating procedures established by the NCI PDMR (https://pdmr.cancer.gov/sops/default.htm). All PDCs were thawed and cultured in Matrigel-coated flasks prepared with a working solution of 1X Ham's F-12 nutrient mix, without supplementation (Invitrogen, Waltham, MA, cat. 11765054), 100 U/mL penicillin-streptomycin (Invitrogen, cat. 15140122), and 2.5% Matrigel (Corning Inc., Corning, NY, cat. 354248) for the first three passages. The 354836-022-R-J1-PDC, 475296-252-R-J1-PDC, and 997726-040-R-J2-PDC lines were cultured in 6A media, which includes advanced DMEM/F-12 (Thermo Fisher Scientific, cat. 12634028), 10 mM HEPES (Thermo Fisher Scientific, cat. 15630080), 1X GlutaMAX supplement (Thermo Fisher Scientific, cat. 35050061), 0.1 mg/mL primocin (InvivoGen, San Diego, CA, cat. ant-pm-2), 10% defined fetal bovine serum, heat inactivated (HyClone Laboratories Inc., Logan, UT, cat. SH30070.03HI), 50% L-WRN conditioned media (ATCC, cat. CRL-3276), 1.25 mM N-Acetyl-L-cysteine (Sigma-Aldrich, cat. A9165), 10 mM nicotinamide (Sigma-Aldrich, cat. N0636), 1X B-27 supplement (Thermo Fisher Scientific, cat. 17504044), 1X N-2 supplement (Thermo Fisher Scientific, cat. 17502048), and 10 microM Y-27632 dihydrochloride (Tocris Bioscience, Bristol, United Kingdom, cat. 1254). The 624824-186-R-J2-PDC line was cultured in 6C/Colon 1B media, which includes all 6A media components plus 50 ng/mL human EGF recombinant protein (Thermo Fisher Scientific, cat. PHG0311). […]

[1] = curve of first compound, second compound 0.0316 µM
[2] = curve of first compound, second compound 0.1 µM
[3] = curve of first compound, second compound 0.316 µM
[4] = curve of first compound, second compound 1 µM
[5] = second compound 0.0316 µM, first compound 0.0316 µM
[6] = second compound 0.0316 µM, first compound 0.1 µM
[7] = second compound 0.0316 µM, first compound 0.316 µM
[8] = second compound 0.0316 µM, first compound 1 µM
[9] = second compound 0.0316 µM, first compound 3.16 µM
[10] = second compound 0.0316 µM, first compound 10 µM
[11] = second compound 0.1 µM, first compound 0.0316 µM
[12] = second compound 0.1 µM, first compound 0.1 µM
[13] = second compound 0.1 µM, first compound 0.316 µM
[14] = second compound 0.1 µM, first compound 1 µM
[15] = second compound 0.1 µM, first compound 3.16 µM
[16] = second compound 0.1 µM, first compound 10 µM
[17] = second compound 0.316 µM, first compound 0.0316 µM
[18] = second compound 0.316 µM, first compound 0.1 µM
[19] = second compound 0.316 µM, first compound 0.316 µM
[20] = second compound 0.316 µM, first compound 1 µM
[21] = second compound 0.316 µM, first compound 3.16 µM
[22] = second compound 0.316 µM, first compound 10 µM
[23] = second compound 1 µM, first compound 0.0316 µM
[24] = second compound 1 µM, first compound 0.1 µM
[25] = second compound 1 µM, first compound 0.316 µM
[26] = second compound 1 µM, first compound 1 µM
[27] = second compound 1 µM, first compound 3.16 µM
[28] = second compound 1 µM, first compound 10 µM
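Further: spheroids exposed to compounds for seven days before readout.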

CC1(C)CCC(Nc2ncc(C(F)(F)F)c(-c3c[nH]c4c(P(C)(C)=O)c(C#N)ccc34)n2)CN1 (stereo unspecified) + Cc1nc(NC(=O)N2CCCC2C(N)=O)sc1-c1ccnc(C(C)(C)C(F)(F)F)c1 showed an IC50 [1] of 6.39 µM, an IC50 [2] of 4.53 µM and an IC50 [3] of 4.09 µM. The IC50 [4] was 3.33 µM, the IC50 (curve of first compound, second compound 3.16 µM) was 2.58 µM and the IC50 (curve of first compound, second compound 10 µM) was 1.04 µM. It also gave a viability, T/C [5] of 108%, a viability, T/C [6] of 136% and a viability, T/C [7] of 84%. It also gave a viability, T/C [8] of 72.4%, a viability, T/C [9] of 71.4% and a viability, T/C [10] of 39%. The viability, T/C [11] was 140%, the viability, T/C [12] was 112% and the viability, T/C [13] was 83.5%. For the same molecule, the viability, T/C [14] was 72.2%, the viability, T/C [15] was 55.9% and the viability, T/C [16] was 40.3%. The viability, T/C [17] was 119%, the viability, T/C [18] was 79.5% and the viability, T/C [19] was 96.2%. For the same molecule, the viability, T/C [20] was 59.4%, the viability, T/C [21] was 67.1% and the viability, T/C [22] was 30.9%. The viability, T/C [23] was 103%, the viability, T/C [24] was 82% and the viability, T/C [25] was 86.5%. For the same molecule, the viability, T/C [26] was 67.6%, the viability, T/C [27] was 55.2% and the viability, T/C [28] was 22.8%. It also gave a viability, T/C (second compound 3.16 µM, first compound 0.0316 µM) of 80.5%, a viability, T/C (second compound 3.16 µM, first compound 0.1 µM) of 83.9% and a viability, T/C (second compound 3.16 µM, first compound 0.316 µM) of 73.5%. The viability, T/C (second compound 3.16 µM, first compound 1 µM) was 55.3%, the viability, T/C (second compound 3.16 µM, first compound 3.16 µM) was 52.6% and the viability, T/C (second compound 3.16 µM, first compound 10 µM) was 25.2%. It also gave a viability, T/C (second compound 10 µM, first compound 0.0316 µM) of 77.5%, a viability, T/C (second compound 10 µM, first compound 0.1 µM) of 63.2% and a viability, T/C (second compound 10 µM, first compound 0.316 µM) of 45.5%. It also gave a viability, T/C (second compound 10 µM, first compound 1 µM) of 57.1%, a viability, T/C (second compound 10 µM, first compound 3.16 µM) of 44.3% and a viability, T/C (second compound 10 µM, first compound 10 µM) of 14.5%.

With Cn1nccc1Nc1nccc(-c2ccn(C(CO)c3ccc(Cl)c(F)c3)c(=O)c2)n1 (stereo unspecified) the viability, T/C (compound 0.0316 µM) was 102% [middle of 4 runs], the viability, T/C (compound 0.316 µM) was 95.4% [middle of 4 runs] and the viability, T/C (compound 1 µM) was 86.6% [middle of 4 runs]. For the same molecule, the viability, T/C (compound 3.16 µM) was 89.5% [middle of 4 runs] and the IC50 (curve of compound) was > 10 µM.

In the case of C#Cc1c(F)ccc2cc(O)cc(-c3ncc4c(N5CC6CCC(C5)N6)nc(OCC56CCCN5CC(F)C6)nc4c3F)c12 (stereo unspecified), the viability, T/C (compound 0.0316 µM) is reported as 98.5% [middle of 4 runs], the viability, T/C (compound 0.1 µM) is reported as 103% [middle of 4 runs] and the viability, T/C (compound 0.316 µM) is reported as 101% [middle of 4 runs]. For the same molecule, the viability, T/C (compound 1 µM) was 97.3% [middle of 4 runs], the viability, T/C (compound 3.16 µM) was 86.7% [middle of 4 runs] and the viability, T/C (compound 10 µM) was 63.8% [middle of 4 runs]. The IC50 (curve of compound) was > 10 µM.

Cn1nccc1Nc1nccc(-c2ccn(C(CO)c3ccc(Cl)c(F)c3)c(=O)c2)n1 (stereo unspecified) + COc1c(OCCCN2CCOCC2)ccc2c3n(c(=NC(=O)c4cnc(N)nc4)nc12)CCN3 showed an IC50 (curve of first compound, second compound 0.00316 µM) of 9.71 µM, an IC50 (curve of first compound, second compound 0.01 µM) of 7.7 µM and an IC50 [1] of 2.72 µM. The IC50 [2] was 1.27 µM, the IC50 [3] was < 0.0316 µM and the IC50 [4] was < 0.0316 µM. The viability, T/C (second compound 0.00316 µM, first compound 0.0316 µM) was 93.8%, the viability, T/C (second compound 0.00316 µM, first compound 0.1 µM) was 98.4% and the viability, T/C (second compound 0.00316 µM, first compound 0.316 µM) was 97.9%. It also gave a viability, T/C (second compound 0.00316 µM, first compound 1 µM) of 83.5%, a viability, T/C (second compound 0.00316 µM, first compound 3.16 µM) of 67.1% and a viability, T/C (second compound 0.00316 µM, first compound 10 µM) of 49.3%. For the same molecule, the viability, T/C (second compound 0.01 µM, first compound 0.0316 µM) was 98.6%, the viability, T/C (second compound 0.01 µM, first compound 0.1 µM) was 100% and the viability, T/C (second compound 0.01 µM, first compound 0.316 µM) was 99.1%. It also gave a viability, T/C (second compound 0.01 µM, first compound 1 µM) of 83.3%, a viability, T/C (second compound 0.01 µM, first compound 3.16 µM) of 81.6% and a viability, T/C (second compound 0.01 µM, first compound 10 µM) of 41.2%. The viability, T/C [5] was 80.3%, the viability, T/C [6] was 86.7% and the viability, T/C [7] was 83.1%. The viability, T/C [8] was 57.1%, the viability, T/C [9] was 52.3% and the viability, T/C [10] was 25.6%. The viability, T/C [11] was 58.6%, the viability, T/C [12] was 55.4% and the viability, T/C [13] was 60%. For the same molecule, the viability, T/C [14] was 55.6%, the viability, T/C [15] was 27.7% and the viability, T/C [16] was 12%. It also gave a viability, T/C [17] of 30.9%, a viability, T/C [18] of 42.4% and a viability, T/C [19] of 28.8%. For the same molecule, the viability, T/C [20] was 31.9%, the viability, T/C [21] was 15.4% and the viability, T/C [22] was 1.75%. For the same molecule, the viability, T/C [23] was 16.9%, the viability, T/C [24] was 13.1% and the viability, T/C [25] was 18.1%. The viability, T/C [26] was 13.6%, the viability, T/C [27] was 3.23% and the viability, T/C [28] was 1.67%.

Reference: PubChem BioAssay AID1963963 (Molecular Pharmacology Branch, DTP, NCI, 2024)
